Each structure is given as a SMILES string. Active and inactive are the calls of the source.

Assay [1] has as its target Neuropeptides B/W receptor type 1 (Homo sapiens, UniProt P48145). Kind of assay: GPR7 antagonist potency, late-stage follow-up, cell-based, fluorescence, dose response, set 5 (AID 588566). It counts as functional.
Assay [2] deals with Melanin-concentrating hormone receptor 1 (Homo sapiens, UniProt Q99705). Kind of assay: Late-stage fluorescence-based counterscreen for antagonists of the G-protein coupled receptor 7 (GPR7): cell-based dose response assay to identify antagonists of the melanin-concentrating hormone receptor 1 (MCHR1) Set 5. Type of assay: functional. (In general: A counterscreen serves to expose hits that act by an unwanted route or on another target.)

Assay [3] is described as follows: Luminescence Cell-Based Dose Retest to Confirm Inhibitors of Cancer Stem Cells. [Related pubchem assays (depositor defined):AID2717, AID2721]. Type of assay: functional. The settings on record: Homo sapiens.
In assay [4] the target is T1, Insulin-degrading enzyme (Homo sapiens, UniProt P14735). As to the kind of experiment: activators of endogenous IDE in HEK cells, dose response, cell-based, fluorescence polarization (AID 588439). Type of assay: functional. For orientation: In fluorescence polarisation assays a small probe gives low polarisation when free and higher when bound to something large.
Assay [5] relates to HEK293. As to the kind of experiment: HEK cell cytotoxicity by LDH release, dose response, cytotoxicity control for IDE activator project, fluorescence, HEK cells (AID 588440).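 Further: cytotoxicity by LDH release measuring loss of membrane integrity.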 It counts as functional, cell-based. To be noted: Homo sapiens. (Release of lactate dehydrogenase indicates damage to the cell membrane.)
Assay [6] has as its target T1, Insulin-degrading enzyme. As to the kind of experiment: activators of recombinant IDE enzyme, dose response, counter-screen for IDE activator project, biochemical, fluorescence polarization (AID 588681).
For a further assay, the system named is CHO. As to the kind of experiment: cytotoxicity in TLR9-MyD88 CHO cells, dose response, cytotoxicity control for TLR9-MyD88 binding inhibitor project, cell-based, luminescence (AID 588339).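 Further: CHO cells stably coexpressing TLR9 and MyD88 fusions from primary screen; compound exposure lasted 48 hours before viability readout.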 Type of assay: functional, hamster. To be noted: Cricetulus griseus.
For assay [7], the system named is HEK293. Kind of assay: optical interference in Abeta FP readout, dose response, artefact control for IDE activator project, biochemical, fluorescence polarization (AID 588442). Type of assay: functional, cell-based. To be noted: Homo sapiens.
The target of another assay is Beta Lactamase (Pseudomonas aeruginosa, UniProt Q932Y6). Kind of assay: beta-lactamase reporter inhibitor potency, dose response, artefact control for TLR9-MyD88 binding inhibitor project, BLA reporter cells, FRET fluorescence (AID 588341).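 Further: cell based assay in CHO-K1 cells stably expressing beta-lactamase.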 It counts as cell-based.
The target in assay [8] is T2, Fatty acid synthase (Homo sapiens, UniProt P49327). As to the kind of experiment: FAS thioesterase domain inhibitors, dose response, biochemical, kinetic fluorescence intensity (AID 624326).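 Further: rate of fluorescence rise from hydrolysis of a fluorogenic O-methyl fluorescein ester substrate.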 Type of assay: functional.
The nature of assay [9]: nonselective inhibitors of cellular cAMP signaling, dose response, counter-screen for MC4R biased antagonist project, cell-based, TR-FRET cAMP detection (AID 602305).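 Further: U2OS cells stimulated with forskolin near its EC80 as the cAMP inducer; potency is for inhibition of forskolin-stimulated cAMP signaling.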 It counts as functional.
For another assay, the target named is Melanocortin receptor 4 (Homo sapiens, UniProt P32245). As to the kind of experiment: MC4R antagonist potency on cAMP, dose response, cell-based, TR-FRET, biased antagonists (AID 602298).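 Further: antagonist potency against agonist-stimulated cAMP production.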 Type of assay: functional.
The target in assay [10] is T2, Fatty acid synthase. As to the kind of experiment: FAS thioesterase domain inhibitors, dose response, biochemical, endpoint fluorescence intensity, uHTS hits (AID 624327).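 Further: fluorescence from hydrolysis of an O-methyl fluorescein acyl ester substrate by the enzyme.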 It counts as functional.
Assay [11] deals with Sphingosine 1-phosphate receptor 2 (Homo sapiens, UniProt O95136). Kind of assay: Late-stage fluorescence-based dose-response cell-based counterscreen assay to identify agonists of the Sphingosine 1-Phosphate Receptor 3 (S1P3): Sphingosine 1-Phosphate Receptor 2 (S1P2) agonist assay. It counts as functional.
Assay [12] addresses Sphingosine 1-phosphate receptor 4 (Homo sapiens, UniProt O95977). Kind of assay: Late-stage fluorescence-based dose-response cell-based counterscreen assay to identify agonists of the Sphingosine 1-Phosphate Receptor 3 (S1P3): Sphingosine 1-Phosphate Receptor 4 (S1P4) agonist assay. It counts as functional.
In assay [13] the target is Interleukin-1 receptor-associated kinase 4 (Homo sapiens, UniProt Q9NWZ3). It counts as functional.
Assay [14] concerns the target Serine/threonine-protein kinase PAK 1 (Homo sapiens, UniProt Q13153). It counts as functional.
In assay [15] the target is Mitogen-activated protein kinase kinase kinase kinase 5 (Homo sapiens, UniProt Q9Y4K4). It counts as functional.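 Further: measured as one member of a kinome-spanning kinase panel.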
Assay [16] concerns the target Dual specificity protein kinase CLK4 (Homo sapiens, UniProt Q9HAZ1). It counts as functional.
Assay [17] addresses MAP kinase-interacting serine/threonine-protein kinase 2 (Homo sapiens, UniProt Q9HBH9). It counts as functional.
In assay [18] the target is Mitogen-activated protein kinase kinase kinase kinase 4 (Homo sapiens, UniProt O95819). Type of assay: functional.
Assay [19] deals with T3, Sentrin-specific protease 8 (Homo sapiens, UniProt Q96LD8).
T3 sequence (Q96LD8 whole entry): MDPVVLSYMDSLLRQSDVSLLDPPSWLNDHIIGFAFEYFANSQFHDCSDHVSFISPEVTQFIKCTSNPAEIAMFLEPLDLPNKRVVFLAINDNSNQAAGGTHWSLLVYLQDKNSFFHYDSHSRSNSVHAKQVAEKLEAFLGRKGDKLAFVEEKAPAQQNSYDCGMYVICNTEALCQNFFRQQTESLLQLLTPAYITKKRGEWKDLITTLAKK
Kind of assay: SENP8 protease inhibitors, SAR follow-up, biochemical, luminescence, set 2 (AID 588601). It counts as functional.

Assay [20] concerns the target T4, Sentrin-specific protease 6 (Homo sapiens, UniProt Q9GZR1).
T4 sequence (Q9GZR1 whole entry): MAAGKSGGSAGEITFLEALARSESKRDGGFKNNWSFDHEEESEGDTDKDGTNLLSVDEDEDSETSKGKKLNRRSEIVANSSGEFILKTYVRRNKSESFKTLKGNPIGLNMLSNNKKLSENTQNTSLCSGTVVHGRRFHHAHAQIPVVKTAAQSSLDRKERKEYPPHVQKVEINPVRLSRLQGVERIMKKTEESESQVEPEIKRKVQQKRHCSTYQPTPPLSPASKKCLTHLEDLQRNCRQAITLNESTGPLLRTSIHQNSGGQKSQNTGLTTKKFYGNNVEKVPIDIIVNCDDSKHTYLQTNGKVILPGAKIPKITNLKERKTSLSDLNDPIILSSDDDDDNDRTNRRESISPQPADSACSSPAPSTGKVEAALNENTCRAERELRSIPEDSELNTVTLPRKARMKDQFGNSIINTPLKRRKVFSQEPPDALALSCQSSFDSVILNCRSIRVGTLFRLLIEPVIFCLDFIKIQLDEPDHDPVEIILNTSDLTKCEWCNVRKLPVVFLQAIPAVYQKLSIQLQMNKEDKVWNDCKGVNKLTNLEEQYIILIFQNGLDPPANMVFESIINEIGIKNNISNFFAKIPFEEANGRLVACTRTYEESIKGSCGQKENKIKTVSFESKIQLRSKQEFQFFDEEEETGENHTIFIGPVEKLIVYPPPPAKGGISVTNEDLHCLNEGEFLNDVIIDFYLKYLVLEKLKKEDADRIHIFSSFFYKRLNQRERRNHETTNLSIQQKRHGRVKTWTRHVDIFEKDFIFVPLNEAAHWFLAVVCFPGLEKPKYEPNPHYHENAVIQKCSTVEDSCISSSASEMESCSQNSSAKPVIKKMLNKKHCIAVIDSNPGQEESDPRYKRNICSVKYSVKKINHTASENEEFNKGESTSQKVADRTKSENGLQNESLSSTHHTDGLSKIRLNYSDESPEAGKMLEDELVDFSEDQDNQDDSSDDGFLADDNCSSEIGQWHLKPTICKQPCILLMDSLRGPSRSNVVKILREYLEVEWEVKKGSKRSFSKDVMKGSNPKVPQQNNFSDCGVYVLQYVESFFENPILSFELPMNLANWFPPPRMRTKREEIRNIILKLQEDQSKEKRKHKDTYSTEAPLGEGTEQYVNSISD
Kind of assay: SENP6 protease inhibitors, SAR follow-up, biochemical, luminescence, set 2 (AID 588598). It counts as functional.

For assay [21], the target named is T4, Sentrin-specific protease 6. Kind of assay: SAR Analysis of small molecule inhibitors of Sentrin-specific protease 6 (SENP6) using a Luminescent assay. [Related pubchem assays (depositor defined):AID2582, AID2599]. It counts as functional.
For assay [22], the target named is T3, Sentrin-specific protease 8. Kind of assay: SENP8 protease inhibitors, SAR follow-up, biochemical, luminescence (AID 504501). Type of assay: functional.
The target in assay [23] is T5, Sentrin-specific protease 7 (Homo sapiens, UniProt Q9BQF6).
T5 sequence (Q9BQF6 whole entry): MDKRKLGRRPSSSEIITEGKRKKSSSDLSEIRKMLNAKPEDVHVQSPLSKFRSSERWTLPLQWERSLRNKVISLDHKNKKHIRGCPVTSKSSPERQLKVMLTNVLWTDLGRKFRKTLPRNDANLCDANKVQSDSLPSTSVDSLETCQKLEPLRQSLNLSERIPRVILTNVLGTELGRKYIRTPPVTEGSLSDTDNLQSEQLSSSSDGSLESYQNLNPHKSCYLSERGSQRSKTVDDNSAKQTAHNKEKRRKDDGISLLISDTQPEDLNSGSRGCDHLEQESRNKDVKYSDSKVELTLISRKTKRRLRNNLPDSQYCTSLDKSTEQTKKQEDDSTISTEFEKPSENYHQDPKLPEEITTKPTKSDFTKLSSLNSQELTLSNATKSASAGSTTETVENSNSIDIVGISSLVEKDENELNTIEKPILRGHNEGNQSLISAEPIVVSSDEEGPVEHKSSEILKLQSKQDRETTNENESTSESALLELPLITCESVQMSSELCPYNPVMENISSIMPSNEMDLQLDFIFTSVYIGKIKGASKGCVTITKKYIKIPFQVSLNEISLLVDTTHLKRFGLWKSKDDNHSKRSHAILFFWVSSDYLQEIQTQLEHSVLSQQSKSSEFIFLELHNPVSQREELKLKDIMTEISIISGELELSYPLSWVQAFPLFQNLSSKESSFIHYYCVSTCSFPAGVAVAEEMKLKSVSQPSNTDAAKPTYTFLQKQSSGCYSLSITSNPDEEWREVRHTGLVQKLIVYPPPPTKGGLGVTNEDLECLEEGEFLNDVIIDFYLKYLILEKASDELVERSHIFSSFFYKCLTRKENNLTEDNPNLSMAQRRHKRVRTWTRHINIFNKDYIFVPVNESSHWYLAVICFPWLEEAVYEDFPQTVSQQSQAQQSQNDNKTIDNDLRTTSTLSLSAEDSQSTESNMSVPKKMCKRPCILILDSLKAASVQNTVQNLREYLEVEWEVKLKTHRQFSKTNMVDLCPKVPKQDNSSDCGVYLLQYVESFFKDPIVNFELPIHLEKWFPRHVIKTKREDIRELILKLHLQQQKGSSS
Kind of assay: SENP7 protease inhibitors, SAR follow-up, biochemical, luminescence (AID 504497). Type of assay: functional.

Assay [24] deals with T6, Caspase-3 (Homo sapiens, UniProt P42574).
T6 sequence (P42574 whole entry): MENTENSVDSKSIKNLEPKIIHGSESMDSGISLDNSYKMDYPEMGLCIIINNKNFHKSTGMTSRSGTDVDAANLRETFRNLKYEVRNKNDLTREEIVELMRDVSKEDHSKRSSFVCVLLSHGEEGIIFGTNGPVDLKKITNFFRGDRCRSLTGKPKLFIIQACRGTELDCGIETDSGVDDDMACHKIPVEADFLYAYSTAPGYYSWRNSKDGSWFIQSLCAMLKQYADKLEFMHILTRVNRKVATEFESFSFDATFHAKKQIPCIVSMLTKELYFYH
As to the kind of experiment: caspase-3 inhibitors as off-family protease, SAR follow-up, selectivity assay for SENP protease inhibitor project, biochemical, luminescence, set 2 (AID 588599). Type of assay: functional.

Assay [25] deals with T6, Caspase-3. As to the kind of experiment: SAR Analysis of small molecule inhibitors of Sentrin-specific proteases (SENPs) using a Caspase-3 Selectivity assay. [Related pubchem assays (depositor defined):AID2540, AID2599, AID434973, AID489001]. It counts as functional.
Assay [26] deals with T5, Sentrin-specific protease 7. Kind of assay: SENP7 protease inhibitors, SAR follow-up, biochemical, luminescence, set 2 (AID 588600). Type of assay: functional.
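Wherever AC50 is given: cells exposed to compound for roughly 70 hours or longer before luminescence read.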

T1 sequence (P14735 whole entry): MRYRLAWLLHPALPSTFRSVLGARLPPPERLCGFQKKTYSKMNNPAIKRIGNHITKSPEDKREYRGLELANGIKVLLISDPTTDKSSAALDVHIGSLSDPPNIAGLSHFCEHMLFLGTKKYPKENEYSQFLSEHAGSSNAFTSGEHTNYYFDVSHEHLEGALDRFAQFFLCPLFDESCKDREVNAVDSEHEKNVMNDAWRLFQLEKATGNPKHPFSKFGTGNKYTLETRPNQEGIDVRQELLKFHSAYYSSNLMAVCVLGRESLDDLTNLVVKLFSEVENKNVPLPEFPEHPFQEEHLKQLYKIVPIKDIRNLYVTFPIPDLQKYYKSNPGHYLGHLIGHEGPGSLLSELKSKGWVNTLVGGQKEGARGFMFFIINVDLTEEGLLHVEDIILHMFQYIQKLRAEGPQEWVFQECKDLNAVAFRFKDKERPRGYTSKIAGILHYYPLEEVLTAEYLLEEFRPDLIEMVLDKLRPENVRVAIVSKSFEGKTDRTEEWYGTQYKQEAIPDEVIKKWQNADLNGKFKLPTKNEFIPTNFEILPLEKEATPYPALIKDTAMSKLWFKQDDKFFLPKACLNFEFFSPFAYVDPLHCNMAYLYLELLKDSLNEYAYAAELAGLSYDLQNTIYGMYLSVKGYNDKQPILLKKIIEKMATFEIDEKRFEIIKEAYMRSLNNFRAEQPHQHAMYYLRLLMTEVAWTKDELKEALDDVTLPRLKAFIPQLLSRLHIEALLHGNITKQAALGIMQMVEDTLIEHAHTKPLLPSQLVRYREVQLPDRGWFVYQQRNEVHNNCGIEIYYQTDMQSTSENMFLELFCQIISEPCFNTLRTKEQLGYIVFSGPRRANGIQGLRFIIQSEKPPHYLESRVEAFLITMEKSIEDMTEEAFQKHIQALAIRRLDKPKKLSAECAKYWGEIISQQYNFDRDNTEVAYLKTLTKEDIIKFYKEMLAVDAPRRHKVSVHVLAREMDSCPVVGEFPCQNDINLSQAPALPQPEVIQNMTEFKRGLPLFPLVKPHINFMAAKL
T2 sequence (P49327 whole entry, the tested form may be a part): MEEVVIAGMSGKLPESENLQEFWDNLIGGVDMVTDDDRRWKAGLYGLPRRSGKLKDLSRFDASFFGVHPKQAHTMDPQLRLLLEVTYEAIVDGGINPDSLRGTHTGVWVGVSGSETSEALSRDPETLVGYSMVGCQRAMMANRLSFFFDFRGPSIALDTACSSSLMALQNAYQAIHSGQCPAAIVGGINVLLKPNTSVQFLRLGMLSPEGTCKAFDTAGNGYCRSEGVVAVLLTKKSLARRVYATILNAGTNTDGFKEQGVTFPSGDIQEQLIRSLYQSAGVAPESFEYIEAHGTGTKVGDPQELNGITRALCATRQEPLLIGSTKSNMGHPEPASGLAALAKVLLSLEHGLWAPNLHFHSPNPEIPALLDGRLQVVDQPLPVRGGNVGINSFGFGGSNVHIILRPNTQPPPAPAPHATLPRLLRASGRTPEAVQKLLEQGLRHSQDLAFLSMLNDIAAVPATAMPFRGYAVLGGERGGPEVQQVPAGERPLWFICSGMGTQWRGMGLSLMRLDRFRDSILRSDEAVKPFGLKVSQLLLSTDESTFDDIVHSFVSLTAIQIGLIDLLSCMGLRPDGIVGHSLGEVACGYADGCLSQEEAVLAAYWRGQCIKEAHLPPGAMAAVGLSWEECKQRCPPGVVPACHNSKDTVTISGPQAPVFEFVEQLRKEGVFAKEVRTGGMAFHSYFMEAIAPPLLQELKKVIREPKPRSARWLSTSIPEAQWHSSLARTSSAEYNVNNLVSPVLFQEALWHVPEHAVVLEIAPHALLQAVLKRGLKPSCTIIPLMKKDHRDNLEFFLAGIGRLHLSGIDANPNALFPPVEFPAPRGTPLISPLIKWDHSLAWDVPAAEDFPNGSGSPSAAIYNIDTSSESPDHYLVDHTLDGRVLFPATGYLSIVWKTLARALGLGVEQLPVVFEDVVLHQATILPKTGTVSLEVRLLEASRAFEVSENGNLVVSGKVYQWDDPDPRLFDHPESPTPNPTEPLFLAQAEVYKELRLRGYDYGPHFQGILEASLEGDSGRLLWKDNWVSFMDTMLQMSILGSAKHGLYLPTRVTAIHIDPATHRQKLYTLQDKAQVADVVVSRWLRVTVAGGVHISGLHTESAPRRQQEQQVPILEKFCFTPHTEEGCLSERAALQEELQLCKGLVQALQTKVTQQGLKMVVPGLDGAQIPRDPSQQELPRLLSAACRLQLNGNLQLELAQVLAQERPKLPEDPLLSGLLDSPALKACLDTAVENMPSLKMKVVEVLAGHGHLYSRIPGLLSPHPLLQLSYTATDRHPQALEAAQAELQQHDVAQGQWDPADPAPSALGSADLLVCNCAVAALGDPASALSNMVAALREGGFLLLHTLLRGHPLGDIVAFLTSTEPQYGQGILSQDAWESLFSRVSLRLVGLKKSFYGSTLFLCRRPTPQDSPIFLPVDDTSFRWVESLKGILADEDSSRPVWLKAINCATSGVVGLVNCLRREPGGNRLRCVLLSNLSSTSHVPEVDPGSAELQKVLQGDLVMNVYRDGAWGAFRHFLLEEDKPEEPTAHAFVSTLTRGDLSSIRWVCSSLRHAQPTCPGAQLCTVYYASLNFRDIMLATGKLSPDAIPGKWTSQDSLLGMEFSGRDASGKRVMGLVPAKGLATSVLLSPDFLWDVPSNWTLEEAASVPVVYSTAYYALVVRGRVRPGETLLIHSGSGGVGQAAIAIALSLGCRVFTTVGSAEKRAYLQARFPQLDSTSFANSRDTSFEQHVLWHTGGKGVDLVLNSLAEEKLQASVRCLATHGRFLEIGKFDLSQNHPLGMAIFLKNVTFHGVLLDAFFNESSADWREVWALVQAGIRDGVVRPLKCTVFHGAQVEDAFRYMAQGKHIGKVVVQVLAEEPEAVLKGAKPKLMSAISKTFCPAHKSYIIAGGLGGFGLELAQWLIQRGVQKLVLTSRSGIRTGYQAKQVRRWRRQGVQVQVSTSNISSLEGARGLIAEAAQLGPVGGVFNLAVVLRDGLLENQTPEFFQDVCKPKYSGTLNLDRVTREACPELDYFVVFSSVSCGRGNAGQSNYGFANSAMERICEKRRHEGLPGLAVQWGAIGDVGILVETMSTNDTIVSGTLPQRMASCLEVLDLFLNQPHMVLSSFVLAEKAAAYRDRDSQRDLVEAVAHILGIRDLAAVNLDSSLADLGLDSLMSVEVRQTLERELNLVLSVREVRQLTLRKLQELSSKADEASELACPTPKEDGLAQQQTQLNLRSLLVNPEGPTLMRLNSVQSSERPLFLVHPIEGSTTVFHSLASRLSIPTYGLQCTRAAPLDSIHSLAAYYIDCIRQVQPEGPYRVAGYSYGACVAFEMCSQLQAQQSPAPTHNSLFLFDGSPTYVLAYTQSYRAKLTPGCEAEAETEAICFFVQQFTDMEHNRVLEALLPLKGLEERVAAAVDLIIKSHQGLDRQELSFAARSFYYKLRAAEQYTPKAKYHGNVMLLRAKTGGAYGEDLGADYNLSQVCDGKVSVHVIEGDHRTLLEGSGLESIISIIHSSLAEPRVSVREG
Interleukin-1 receptor-associated kinase 4, sequence (Q9NWZ3 whole entry): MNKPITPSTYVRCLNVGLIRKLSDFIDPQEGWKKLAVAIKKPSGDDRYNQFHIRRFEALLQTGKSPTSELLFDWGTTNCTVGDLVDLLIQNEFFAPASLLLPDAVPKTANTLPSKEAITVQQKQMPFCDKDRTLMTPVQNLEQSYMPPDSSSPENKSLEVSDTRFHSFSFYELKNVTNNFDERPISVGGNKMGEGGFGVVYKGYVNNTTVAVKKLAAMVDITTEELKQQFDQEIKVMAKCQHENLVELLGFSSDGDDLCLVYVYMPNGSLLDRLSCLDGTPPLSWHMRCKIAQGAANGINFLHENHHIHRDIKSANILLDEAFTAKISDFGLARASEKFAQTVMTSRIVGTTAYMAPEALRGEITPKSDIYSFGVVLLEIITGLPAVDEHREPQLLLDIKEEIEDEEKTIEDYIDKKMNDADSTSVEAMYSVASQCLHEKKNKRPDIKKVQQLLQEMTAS
Melanocortin receptor 4, sequence (P32245 whole entry, the tested form may be a part): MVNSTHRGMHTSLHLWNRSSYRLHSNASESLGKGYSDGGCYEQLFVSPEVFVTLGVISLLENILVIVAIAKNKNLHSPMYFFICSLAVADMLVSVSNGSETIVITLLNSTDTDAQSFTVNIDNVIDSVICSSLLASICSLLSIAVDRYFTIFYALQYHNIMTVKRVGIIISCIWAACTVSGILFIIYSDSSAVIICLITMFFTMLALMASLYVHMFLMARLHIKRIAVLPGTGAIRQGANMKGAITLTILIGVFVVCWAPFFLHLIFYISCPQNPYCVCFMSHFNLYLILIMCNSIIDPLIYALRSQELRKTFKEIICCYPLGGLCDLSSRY
Beta Lactamase, sequence (Q932Y6 whole entry, the tested form may be a part): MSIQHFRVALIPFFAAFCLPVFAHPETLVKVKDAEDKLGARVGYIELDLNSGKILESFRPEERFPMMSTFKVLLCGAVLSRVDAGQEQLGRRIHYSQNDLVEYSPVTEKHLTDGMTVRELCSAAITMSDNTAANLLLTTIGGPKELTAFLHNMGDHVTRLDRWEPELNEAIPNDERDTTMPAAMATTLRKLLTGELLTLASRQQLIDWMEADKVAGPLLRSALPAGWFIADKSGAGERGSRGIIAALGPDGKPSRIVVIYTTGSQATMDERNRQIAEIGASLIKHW
MAP kinase-interacting serine/threonine-protein kinase 2, sequence (Q9HBH9 whole entry): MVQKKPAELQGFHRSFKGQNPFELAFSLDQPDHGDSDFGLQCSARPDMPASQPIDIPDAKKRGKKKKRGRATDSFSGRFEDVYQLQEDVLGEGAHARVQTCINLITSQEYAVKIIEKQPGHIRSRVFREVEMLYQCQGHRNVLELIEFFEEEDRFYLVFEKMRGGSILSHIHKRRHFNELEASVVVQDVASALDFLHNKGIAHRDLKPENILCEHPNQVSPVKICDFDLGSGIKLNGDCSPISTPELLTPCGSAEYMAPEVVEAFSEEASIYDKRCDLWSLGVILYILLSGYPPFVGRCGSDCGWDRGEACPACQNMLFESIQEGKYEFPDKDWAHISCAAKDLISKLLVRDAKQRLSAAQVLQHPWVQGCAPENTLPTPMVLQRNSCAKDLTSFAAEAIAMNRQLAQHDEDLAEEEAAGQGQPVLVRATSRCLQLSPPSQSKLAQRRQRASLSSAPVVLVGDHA

The term IC50 denotes the point on the concentration scale where inhibition reaches its midpoint. Consider `CCOc1ccc(Oc2c(S(C)(=O)=O)cnn(Cc3cccc4ccccc34)c2=O)cc1`, for which the IC50 in [1] was 2.55 µM (active); in [2] it was 0.804 µM (active).
Usually AC50 stands for the midpoint of the concentration-response curve, whichever way the signal moves. As a reminder, the EC50 is the midpoint of the concentration-response curve. As for `CCCCCCSc1cc(-c2nc3cnccn3c2NCCCC)ccc1OC`, in [3], the AC50 was 4.56 µM (active). Also, the EC50 at Insulin-degrading enzyme [4] was 13.9 µM (inactive); on Insulin-degrading enzyme [6] it was > 54.7 µM (inactive); with HEK293 [7] it was > 56 µM (inactive). Moreover, the IC50 is 33.6 µM (inactive) in the assay on HEK293 [5], 21.2 µM (inactive) in the assay with CHO and 7.42 µM (active) on Beta Lactamase.
Consider `O=C(Oc1ccccc1C(=O)Nc1ccccc1)c1ccc(Br)c([N+](=O)[O-])c1`, for which the IC50 was 5.97 µM (active) at Fatty acid synthase [8], > 64.6 µM (inactive) in assay [9], > 64.6 µM (inactive) on Melanocortin receptor 4 and 4.66 µM (active) at Fatty acid synthase [10].
For the compound `CCCc1cc(C(=O)NC2CCCCC2)no1`, the EC50 in assay [11] and in assay [12] was > 50 µM (inactive) each time.
Broadly, the Ki is a measure of affinity in units of concentration, obtained from inhibition or displacement. On to `CC(=O)c1cccc(-c2cnc3ccccc3c2)c1`, for which the Ki is > 10 µM (inactive) in assay [13]; > 10 µM (inactive) in assay [14]; 1 µM (active) in assay [15]; 3.98 µM (active) in assay [16]; 6.31 µM (active) in assay [17]; 1.26 µM (active) in [18].
Take `O=C(Nc1nc2c(F)cccc2s1)c1cccs1`: the IC50 was 2.66 µM (active) in assay [19]; 3.02 µM (active) in [20]; 3.5 µM (active) in assay [21]; 4.1 µM (active) in [22]; 2 µM (active) in assay [23]; 3.68 µM (active) at Caspase-3 [24]. The IC50 at Caspase-3 [25] was 3.6 µM (active); in assay [26] it was 2.7 µM (active).

The values are drawn from ChEMBL document CHEMBL1201862, “PubChem BioAssay data set” (2004).
